Structures can show the parent of a compound that is named as a salt.
tested on: not given; assay: not given; conditions: pH 7.4

For `CN1CCC(=C2c3ccccc3CCc3cccnc32)CC1` [Azatadine, 6,11-diydro-11-(1-methyl-4-piperidylidene)-5H-benzo[5,6]cyclohepta[1,2-b]pyridine], which “In Vitro Dermal Penetration” value is on record?
The value was “(+)”.

Which “In Vitro Dermal Penetration” value does the source give for `CN(C)CCC(c1ccc(Cl)cc1)c1ccccn1` (stereo not shown) [Chlorpheniramine base (patch), Chlorpheniramine] here?
Its value is “(+)”.

tested on: rabbits with intact skin; assay: Screening of antihistamines for dermal irritation (24/72 hour screen, Draize grading); conditions: 24/72 hour dermal irritation screen in rabbits with intact skin; formulation strength as given in the label
Text: The irritation results are reported as either irritating (+) or non-irritating (-), and the penetration results are reported as either good (+) or poor (-). […] Eight young adult New Zealand white rabbits were assigned to two groups. The rabbits were housed in stainless steel cages and maintained under standard laboratory conditions. Each cage was identified with a color coded label indicating the test substance, rabbit number, sex, and study number. Food and water were supplied ad libitum. On the day of dosing, the back of each rabbit was clipped free of hair. […] To prevent removal, the chambers were covered with an orthopedic stockinette and secured by a canvas coat.

With `CN(C)CCC(c1ccc(Cl)cc1)c1ccccn1` (stereo not shown) [Chlorpheniramine base (patch), Chlorpheniramine] as the compound, how does the “Rabbit Dermal Irritation” value read?
Its value is “(+)”.

Which “Rabbit Dermal Irritation” value does the source give for `CN1CCC(=C2c3ccccc3C=Cc3ccccc32)CC1` [Cyprhoheptadine HCl] here?
The value was “(+)”.

Which “Rabbit Dermal Irritation” value does the source give for `CN(C)CC[C@@H](c1ccc(Cl)cc1)c1ccccn1` [Dexchlorpheniramine base, Dexchlorpheniramine] here?
Its value is “(+)”.

tested on: rabbits with intact skin; assay: not given; conditions: in vivo

Which “Rabbit Dermal Irritation” value does the source give for `CC(CN1c2ccccc2Sc2ccccc21)N(C)C` (stereo not shown) [Promethazine HCl] here?
The value was “(+)”.

For `CN1CCC(OC(c2ccccc2)c2ccccc2)CC1` [Diphenylpyraline HCl], which “Rabbit Dermal Irritation” value is on record?
The value was “(+)”.

With `CC(C1=C(CCN(C)C)Cc2ccccc21)c1ccccn1` (stereo not shown) [Dimethindine maleate] as the compound, how does the “Rabbit Dermal Irritation” value read?
Its value is “(+)”.

For `CN(C)CC[C@@H](c1ccc(Br)cc1)c1ccccn1` [Dexbrompheniramine (10%), Dexbrompheniramine], which “Rabbit Dermal Irritation” value is on record?
Its value is “(+)”.

With `CN(C)CCOC(C)(c1ccccc1)c1ccccn1` (stereo not shown) [Doxylamine succinate] as the compound, how does the “Rabbit Dermal Irritation” value read?
Its value is “(+)”.

With `Cc1ccc(/C(=C\CN2CCCC2)c2ccccn2)cc1` [Triprolidine HCl] as the compound, how does the “Rabbit Dermal Irritation” value read?
The value was “(+)”.

For `CN(C)CCOC(c1ccc(Cl)cc1)c1ccccn1` (stereo not shown) [Carbinoxamine maleate], which “Rabbit Dermal Irritation” value is on record?
The value was “(+)”.

same assay, conditions: rabbit, in vivo

Which “dermal irritation and/or sensitization” value does the source give for `CN1CCC(=C2c3ccccc3CCc3cccnc32)CC1` [Azatadine, 6,11-diydro-11-(1-methyl-4-piperidylidene)-5H-benzo[5,6]cyclohepta[1,2-b]pyridine] here?
Its value is “no dermal irritation and/or sensitization”.

— patent publication EP0188538B1, “TRANSDERMAL DELIVERY OF AZATADINE” (priority 1984, dated 1986)
